From ChEMBL document CHEMBL4251544, “Identification of imidazo[1,2-b]pyridazine TYK2 pseudokinase ligands as potent and selective allosteric inhibitors of TYK2 signalling” (Medchemcomm, 2017)

Legend:
Assay type in all cases: ADME, organism-based
[1] = Cmax in Balb/c mouse at 25 mg/kg, po; design: dose 25 mg/kg, route oral; conditions: in vivo
[2] = AUClast in Balb/c mouse at 3 mg/kg, iv; design: dose 3 mg/kg, route intravenous, time 0 - last; conditions: in vivo
[3] = AUClast in Balb/c mouse at 25 mg/kg, po; design: dose 25 mg/kg, route oral, time 0 - last; conditions: in vivo
[4] = Volume of distribution at steady state in Balb/c mouse at 3 mg/kg, iv; conditions: in vivo, read-out: Vdss
[5] = Oral bioavailability in Balb/c mouse at 25 mg/kg; conditions: in vivo

CNc1cc(Nc2cc(F)cc(F)c2OC)nn2c(C(=O)NC[C@](C)(O)CO)cnc12 gave a Cmax [1] of 2800 nM, an AUC(0-t) [2] of 2.3 µM·h and an AUC(0-t) [3] of 5.1 µM·h. The Vd [4] was 6.3 L/kg and the bioavailability [5] was 27%.
